Data published in patent US3998818A, “Trifluoroethylmercapto, -sulfinyl or -sulfonyl acetamidocephalosporins” (SmithKline Corporation, priority 1975, dated 1976).
Values after ≈ are worked out from the molar mass of the structure shown.

Tests used:
Format in all cases: cell-based
Strep. faecalis HH 34358 = experiment: MIC by standard agar inclusion method (Strep. faecalis HH 34358); conditions: Enterococcus faecalis, HH34358
Salmonella ATCC 12176 = experiment: MIC by standard agar inclusion method (Salmonella ATCC 12176); conditions: ATCC12176
S. aureus HH 127 = experiment: MIC by standard agar inclusion method (S. aureus HH 127); conditions: Staphylococcus aureus, HH127
S. aureus SK 23390 = experiment: MIC by standard agar inclusion method (S. aureus SK 23390); conditions: Staphylococcus aureus, SK23390
Kleb. pneumo. SK 4200 = experiment: MIC by standard agar inclusion method (Kleb. pneumo. SK 4200)
Shigella paradysentiae = experiment: MIC by standard agar inclusion method (Shigella paradysentiae)
Kleb. pneumo. SK 1200 = experiment: MIC by standard agar inclusion method (Kleb. pneumo. SK 1200)
[1] = tested on: Entero. aerogenes ATCC 13048; experiment: MIC by standard agar inclusion method (Entero. aerogenes ATCC 13048); conditions: Klebsiella aerogenes, ATCC13048
Pseudo. aeruginosa HH63 = experiment: MIC by standard agar inclusion method (Pseudo. aeruginosa HH63); conditions: Pseudomonas aeruginosa
E. coli HH 33779 = experiment: MIC by standard agar inclusion method (E. coli HH 33779); conditions: Escherichia coli, HH33779
[2] = tested on: Serratia marc. ATCC 13880; experiment: MIC by standard agar inclusion method (Serratia marc. ATCC 13880); conditions: ATCC13880
E. coli SK 12140 = experiment: MIC by standard agar inclusion method (E. coli SK 12140); conditions: Escherichia coli, SK12140
S. aureus Villaluz = experiment: MIC by standard agar inclusion method (S. aureus Villaluz); conditions: Staphylococcus aureus

SMILES | MIC (Strep. faecalis HH 34358) [µg/mL] | MIC (Salmonella ATCC 12176) [µg/mL] | MIC (S. aureus HH 127) [µg/mL] | MIC (S. aureus SK 23390) [µg/mL] | MIC (Kleb. pneumo. SK 4200) [µg/mL] | MIC (Shigella paradysentiae) [µg/mL] | MIC (Kleb. pneumo. SK 1200) [µg/mL] | MIC [1] [µg/mL] | MIC (Pseudo. aeruginosa HH63) [µg/mL] | MIC (E. coli HH 33779) [µg/mL] | MIC [2] [µg/mL] | MIC (E. coli SK 12140) [µg/mL] | MIC (S. aureus Villaluz) [µg/mL]
Cn1nnnc1SCC1=C(C(=O)O)N2C(=O)C(NC(=O)CSCC(F)(F)F)[C@H]2SC1 (some centres unmarked) [Compound 3, 7-Trifluoroethylmercaptoacetamido-3-(1-methyltetrazol-5-ylthiomethyl)-3-cephem-4-carboxylic acid] | 12.5 (≈ 25.8 µM) | 0.8 (≈ 1.65 µM) | 0.2 (≈ 0.413 µM) | 0.1 (≈ 0.206 µM) | 3.1 (≈ 6.4 µM) | 0.4 (≈ 0.826 µM) | 1.6 (≈ 3.3 µM) | 6.3 (≈ 13 µM) | > 200 | 6.3 (≈ 13 µM) | > 200 | 1.6 (≈ 3.3 µM) | 12.5 (≈ 25.8 µM)
Cc1nnc(SCC2=C(C(=O)O)N3C(=O)C(NC(=O)CSCC(F)(F)F)[C@H]3SC2)s1 (some centres unmarked) [Compound 2, 7-Trifluoroethylmercaptoacetamido-3-(5-methyl-1,3,4-thiadiazol-2-ylthiomethyl)-3-cephem-4-carboxylic acid] | 6.3 (≈ 12.6 µM) | 6.3 (≈ 12.6 µM) | 0.2 (≈ 0.4 µM) | 0.1 (≈ 0.2 µM) | 6.3 (≈ 12.6 µM) | 1.6 (≈ 3.2 µM) | 3.1 (≈ 6.19 µM) | 25 (≈ 49.9 µM) | > 200 | 12.5 (≈ 25 µM) | > 200 | 6.3 (≈ 12.6 µM) | 25 (≈ 49.9 µM)
CC(=O)OCC1=C(C(=O)O)N2C(=O)C(NC(=O)CSCC(F)(F)F)C2SC1 (centres unmarked) [Compound 1, 7-Trifluoroethylmercaptoacetamidocephalosporanic acid] | 25 (≈ 58.4 µM) | 6.3 (≈ 14.7 µM) | 0.4 (≈ 0.934 µM) | 0.4 (≈ 0.934 µM) | 6.3 (≈ 14.7 µM) | 6.3 (≈ 14.7 µM) | 3.1 (≈ 7.24 µM) | 50 (≈ 117 µM) | > 200 | 50 (≈ 117 µM) | > 200 | 6.3 (≈ 14.7 µM) | 25 (≈ 58.4 µM)
Cn1nnnc1SCC1=C(C(=O)O)N2C(=O)C(NC(=O)CS(=O)(=O)CC(F)(F)F)[C@H]2SC1 (some centres unmarked) [Compound 5, 7-Trifluoroethylsulfonylacetamido-3-(1-methyltetrazol-5-ylthiomethyl)-3-cephem-4-carboxylic acid] | > 200 | 6.3 (≈ 12.2 µM) | 3.1 (≈ 6 µM) | 3.1 (≈ 6 µM) | 3.1 (≈ 6 µM) | 6.3 (≈ 12.2 µM) | 3.1 (≈ 6 µM) | 50 (≈ 96.8 µM) | > 200 | 12.5 (≈ 24.2 µM) | > 200 | 6.3 (≈ 12.2 µM) | 200 (≈ 387 µM)
Cn1nnnc1SCC1=C(C(=O)O)N2C(=O)C(NC(=O)C[S+]([O-])CC(F)(F)F)[C@H]2SC1 (some centres unmarked) [Compound 4, 7-Trifluoroethylsulfinylacetamido-3-(1-methyltetrazol-5-ylthiomethyl)-3-cephem-4-carboxylic acid] | 100 (≈ 200 µM) | 1.6 (≈ 3.2 µM) | 1.6 (≈ 3.2 µM) | 0.8 (≈ 1.6 µM) | 0.8 (≈ 1.6 µM) | 0.4 (≈ 0.799 µM) | 0.4 (≈ 0.799 µM) | 6.3 (≈ 12.6 µM) | > 200 | 3.1 (≈ 6.19 µM) | > 200 | 0.8 (≈ 1.6 µM) | 100 (≈ 200 µM)
